Source: PubChem BioAssay (NCI)
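Grown in 96-well plates, cells were treated for 48 hours with each compound at five concentrations. Insufficient inhibition: endpoint recorded as highest concentration tested. GI50 = concentration required for 50% inhibition of growth. The concentration for full growth arrest is given as TGI.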

Tested on: MDA-MB-468 breast
Test: growth of human tumour cells (NCI), 48 h

SMILES	GI50	TGI
O=S(=O)(Nc1ccc(-c2nc(-c3cccc(O)c3)c(-c3ccnc(Br)c3)[nH]2)cc1)c1ccccc1	1850 nM	5470 nM
N=C(N)c1ccc(-c2ccc(-c3ccccc3)o2)cc1	2120 nM	4100 nM
Nc1nccc(C#Cc2cncnc2Nc2ccc(OCc3cccc(F)c3)c(Cl)c2)n1	1510 nM	4370 nM
CC1(C)CCC(CN2CCN(c3ccc(C(=O)NS(=O)(=O)c4ccc(NCC5CCOCC5)c([N+](=O)[O-])c4)c(Oc4cnc5[nH]ccc5c4)c3)CC2)=C(c2ccc(Cl)cc2)C1	2150 nM	7160 nM
O=C(/C=C/c1cccnc1)/C=C/c1cccnc1	762 nM	2220 nM
CC[C@]12C=CCN3CC[C@]4(C(=C(C(=O)OC)C1)Nc1ccccc14)[C@@H]32	3400 nM	15000 nM
Cn1cc(-c2csc(-c3cn(C)c4ncccc34)n2)c2ccccc21	445 nM	6600 nM
COc1cc2nc(-c3ccc(Cl)cc3)cc(OCCCN3CCC(O)CC3)c2cc1OC	1560 nM	4040 nM
Oc1ccc(-c2nc(-c3ccc(F)cc3)c(-c3ccncc3)[nH]2)cc1	6570 nM	44400 nM
Cn1cc(-c2ccc3c(c2)ncn3-c2ccc(CC(=O)Nc3cc(C(C)(C)C)on3)cc2)cn1	2830 nM	16500 nM
C/C(=N\NC(=S)Nc1ccccc1)c1ccccn1	< 13.2 nM	115 nM
Cc1nc(N=C(N)N)nc2ccc3ccccc3c12	430 nM	2060 nM
CCN1C(=O)N(CC)C2C1NN=c1s/c(=C\c3ccc([N+](=O)[O-])cc3)c(=O)n12 (centres undefined)	409 nM	7140 nM
COc1cc2c(c(Br)c1N)-c1cc(Br)c(N)cc1C2=O	17.2 nM	42.1 nM
Cn1cccc1C1CC(=O)N(CCC[Se]C#N)C1=O (centres undefined)	2680 nM	9290 nM
Cn1cc(-c2nonc2-c2cn(C)c3ccc(Br)cc23)c2ccccc21	1560 nM	5170 nM
S=c1nc(/C=C/c2ccc(Cl)c(Cl)c2)[nH][nH]1	> 100000 nM	> 100000 nM
COc1cccc(N2CCN(C3=C(Cl)C(=O)c4ncccc4C3=O)CC2)c1	1750 nM	3430 nM
O=C(Nc1ccc(-n2cc(-c3ccncc3)c(-c3ccc(O)c(Cl)c3)n2)cc1)c1ccc(Cl)c(Cl)c1	4250 nM	> 32500 nM
O=C1/C(=C\c2ccccc2)CN(C(=O)c2ccccc2F)C/C1=C\c1ccccc1	1810 nM	3890 nM
C=C1CCC2C3(C)COC(c4cccc(Cl)c4)OC3CCC2(C)C1/C=C/C1=CCOC1=O (centres undefined)	1420 nM	7820 nM
CCN(CC)CCN1C(=O)c2c(c3c4cc(Br)ccc4[nH]c3c3ccc4ccccc4c23)C1=O	1520 nM	3450 nM
